# Test results from patent US20090176839A1, “FORMULATIONS OF 3-(6-(1-(2,2-DIFLUOROBENZO[D][1,3]DIOXOL-5-YL) CYCLOPROPANECARBOXAMIDO)-3-METHYLPYRIDIN-2-YL)BENZOIC ACID” (priority 2007, published 2009).
# Like-named read-outs stand apart in the source and are kept apart here.
# How the values were obtained:
# rats = conditions: rat, in vivo, 14 days
# Description: (§3) Repeat-dose oral toxicity studies of 7- and 14-days duration have been conducted in rats (up to 600 mg/kg/day) and dogs (up to 200 mg/kg/day).
# hERG = hERG (Homo sapiens, UniProt Q12809); experiment: hERG channel competitive binding (3H-astemizole); conditions: probe 3H-astemizole
# [1] = Acute oral toxicity study in mice; conditions: mouse, in vivo, po
# Description: (§1) The intended clinical route of administration is oral, thus oral toxicity studies were done in mice, rats and dogs. […] Effects of repeat oral dosing were assessed in rats and dogs in preliminary 7-day toxicity studies followed by a 14-day GLP1 toxicity studies.
# mice = experiment: Acute oral toxicity study in mice; conditions: mice; single oral doses 500, 1000 or 2000 mg/kg
# Description: as §1
# [2] = Single oral pharmacokinetics of the free form in suspension in male rats; assay type: in vivo, male Sprague Dawley rats; conditions: for AUC(0-inf): free form suspension, mean (SD)
# Description: (§2) The pharmacokinetics of Compound 1 were assessed in the same species used in the toxicology studies: CD-1 mice, Sprague Dawley rats and beagle dogs. The pharmacokinetics of Compound 1 were also assessed in cynomolgus monkeys.
# Non-validated research grade assays were used for these analyses. All pharmacokinetic studies were conducted using fed animals unless otherwise specified.
# At 600 mg/kg, the increase in systemic exposure was less than proportional to the increase in dose. Bioavailability ranged from 47% to ˜100% across the 1 to 600 mg/kg oral dose range in rats, indicating excellent absorption of the compound.
# [3] = Pharmacokinetics in cynomolgus monkeys; assay type: in vivo; conditions: monkey
# Description: as §2
# [4] = Toxicokinetics in acute oral toxicity study in rats; assay type: in vivo
# Source text: Compound 1 was also well absorbed in rats with time to reach maximum plasma concentrations(tmax) ranging from 4.0 to 24.0 hr.
# dogs = experiment: 14-day repeat-dose oral toxicity study in dogs
# Description: as §3
# [5] = biological target: T1, Thromboxane A2 (TXA2) receptor (TP receptor) (Homo sapiens, UniProt P21731); experiment: Radiolabel binding counter screen (MDS Pharma Services)
# T1 construct: MDS Pharma Services MDSPS PT#: 1083321
# T1 sequence (P21731 1-343): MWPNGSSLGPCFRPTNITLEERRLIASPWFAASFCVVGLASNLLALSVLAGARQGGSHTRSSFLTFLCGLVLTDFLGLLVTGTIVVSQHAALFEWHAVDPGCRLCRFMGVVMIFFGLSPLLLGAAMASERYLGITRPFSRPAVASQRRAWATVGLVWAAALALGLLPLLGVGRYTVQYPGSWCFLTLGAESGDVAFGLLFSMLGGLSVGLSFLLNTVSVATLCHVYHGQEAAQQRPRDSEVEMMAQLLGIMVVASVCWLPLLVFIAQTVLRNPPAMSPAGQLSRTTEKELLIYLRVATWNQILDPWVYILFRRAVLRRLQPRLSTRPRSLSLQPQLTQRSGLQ
# Source text: Compound 1 was counter screened against a broad panel of enzymes and receptors using radiolabel binding studies (see MDS Pharma Services, LeadProfiling and SpectrumScreen, MDSPS PT#: 1083321).
# TP receptor = biological target: T2, TP receptor (Rattus norvegicus, UniProt P34978); experiment: In vitro functional assay of TP receptor function using rat aorta; assay type: cell-based; conditions: read-out: IC50 (TP receptor antagonist)
# T2 construct: In an in vitro functional assay of TP receptor function using rat aorta; from tissue; host or cells: rat aorta
# T2 sequence (P34978 1-341): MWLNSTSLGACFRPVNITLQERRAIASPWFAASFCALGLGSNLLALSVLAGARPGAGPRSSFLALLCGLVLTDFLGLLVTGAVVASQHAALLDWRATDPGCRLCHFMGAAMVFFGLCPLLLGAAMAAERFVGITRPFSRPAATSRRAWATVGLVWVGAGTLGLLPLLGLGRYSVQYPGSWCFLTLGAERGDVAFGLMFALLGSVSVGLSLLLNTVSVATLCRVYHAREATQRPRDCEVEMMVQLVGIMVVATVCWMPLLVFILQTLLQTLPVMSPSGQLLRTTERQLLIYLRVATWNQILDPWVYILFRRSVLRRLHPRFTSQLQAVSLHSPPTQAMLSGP
# [6] = Sprague Dawley, rat, plasma, po, male rats, free form, 1 mg/kg
# [7] = Sprague Dawley, rat, plasma, po, male rats, free form, 30 mg/kg
# [8] = Sprague Dawley, rat, plasma, po, male rats, free form, 150 mg/kg
# [9] = Sprague Dawley, rat, plasma, po, male rats, free form, 300 mg/kg
# [10] = Sprague Dawley, rat, plasma, po, male rats, free form, 600 mg/kg
# [11] = male rats, free form, 150 mg/kg
# [12] = male rats, free form, 300 mg/kg
# [13] = male rats, free form, 600 mg/kg
# Chain of hERG (Q12809 whole entry): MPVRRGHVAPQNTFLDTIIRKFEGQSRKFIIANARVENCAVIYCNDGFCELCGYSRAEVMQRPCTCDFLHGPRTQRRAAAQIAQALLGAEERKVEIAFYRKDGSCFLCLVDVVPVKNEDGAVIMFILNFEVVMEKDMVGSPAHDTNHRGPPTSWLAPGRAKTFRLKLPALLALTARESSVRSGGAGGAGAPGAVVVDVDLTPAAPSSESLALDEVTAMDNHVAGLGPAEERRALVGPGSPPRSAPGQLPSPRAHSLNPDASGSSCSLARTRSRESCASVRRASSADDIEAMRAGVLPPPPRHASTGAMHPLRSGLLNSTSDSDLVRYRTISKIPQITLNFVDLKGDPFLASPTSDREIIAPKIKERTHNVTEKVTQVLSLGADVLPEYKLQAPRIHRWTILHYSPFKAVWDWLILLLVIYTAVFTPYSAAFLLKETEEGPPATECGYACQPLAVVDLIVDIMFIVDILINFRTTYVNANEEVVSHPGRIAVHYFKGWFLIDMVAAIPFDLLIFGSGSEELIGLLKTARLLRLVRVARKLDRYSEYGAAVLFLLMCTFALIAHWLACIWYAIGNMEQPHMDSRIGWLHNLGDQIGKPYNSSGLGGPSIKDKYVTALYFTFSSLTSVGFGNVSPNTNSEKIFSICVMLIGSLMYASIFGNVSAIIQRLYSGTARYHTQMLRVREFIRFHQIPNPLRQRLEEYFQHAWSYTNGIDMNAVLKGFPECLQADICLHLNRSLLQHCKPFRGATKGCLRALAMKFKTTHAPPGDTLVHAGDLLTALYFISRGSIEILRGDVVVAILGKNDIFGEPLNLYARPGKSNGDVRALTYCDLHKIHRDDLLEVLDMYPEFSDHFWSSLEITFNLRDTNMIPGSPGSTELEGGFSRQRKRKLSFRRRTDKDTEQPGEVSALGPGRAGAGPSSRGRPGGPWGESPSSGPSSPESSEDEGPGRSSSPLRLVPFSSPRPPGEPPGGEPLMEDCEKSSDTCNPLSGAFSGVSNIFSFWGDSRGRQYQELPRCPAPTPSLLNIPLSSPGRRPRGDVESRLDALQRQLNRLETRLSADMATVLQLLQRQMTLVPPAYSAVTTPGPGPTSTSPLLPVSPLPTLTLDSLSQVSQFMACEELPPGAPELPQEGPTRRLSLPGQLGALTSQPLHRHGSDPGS
smiles,measurement,setting,value
"Cc1ccc(NC(=O)C2(c3ccc4c(c3)OC(F)(F)O4)CC2)nc1-c1cccc(C(=O)O)c1 [Compound 1, 3-(6-(1-(2,2-difluorobenzo[d][1,3]dioxol-5-yl)cyclopropanecarboxamido)-3-methylpyridin-2-yl)benzoic acid]",human equivalent dose (based on body surface area),rats,at least 95 mg/kg
same,human total daily dose equivalent,rats,approximately 5700 mg
same,light microscopy of more than 40 organs and tissues,rats,no significant Compound 1 related findings
same,dosage tolerated without toxic effects,rats; po,up to 600 mg/kg/day
same,inhibition at 10 µM,hERG,4%
same,MTD at 14 days,[1],> 2000 mg/kg
same,NOAEL at 14 days,[1],> 2000 mg/kg
same,organ weights and gross observations at necropsy,mice,no effects on organ weights and no gross observations
same,concentration at 48 hr,"[2]; Sprague Dawley, rat, plasma, oral, male rats, free form, 1 mg/kg, read-out: Clast",28.8 ng/mL
same,concentration at 48 h,"[2]; Sprague Dawley, rat, plasma, oral, male rats, free form, 30 mg/kg, read-out: Clast",44 ng/mL
same,concentration at 72 hr,"[2]; Sprague Dawley, rat, plasma, oral, male rats, free form, 150 mg/kg, read-out: Clast",51.6 ng/mL
same,concentration at 48 hr,"[2]; Sprague Dawley, rat, plasma, oral, male rats, free form, 300 mg/kg, read-out: Clast",1120 ng/mL
same,concentration at 72 hr,"[2]; Sprague Dawley, rat, plasma, oral, male rats, free form, 600 mg/kg, read-out: Clast",1240 ng/mL
same,AUC(0-inf),"[2]; Sprague Dawley, rat, plasma, po, male rats, nominal dose 1 mg/kg",13.7 µg·h/mL
same,AUC(0-inf),"[2]; Sprague Dawley, rat, plasma, po, male rats, nominal dose 30 mg/kg",369 µg·h/mL
same,AUC(0-inf),"[2]; Sprague Dawley, rat, plasma, po, male rats, nominal dose 150 mg/kg",728 µg·h/mL
same,AUC(0-inf),"[2]; Sprague Dawley, rat, plasma, po, male rats, nominal dose 300 mg/kg",2530 µg·h/mL
same,AUC(0-inf),"[2]; Sprague Dawley, rat, plasma, po, male rats, nominal dose 600 mg/kg",3080 µg·h/mL
same,Cmax,[2]; [6],1100 ng/mL
same,Tmax,[2]; [6],3 h
same,Cmax,[2]; [7],28200 ng/mL
same,Tmax,[2]; [7],4 h
same,Cmax,[2]; [8],54700 ng/mL
same,Tmax,[2]; [8],4.67 h
same,Cmax,[2]; [9],181000 ng/mL
same,Tmax,[2]; [9],3.33 h
same,Cmax,[2]; [10],203000 ng/mL
same,Tmax,[2]; [10],4.67 h
same,F,"[2]; male rats, free form, 1 mg/kg",>100%
same,tlast,"[2]; male rats, free form, 1 mg/kg",48 h
same,F,"[2]; male rats, free form, 30 mg/kg",>100%
same,tlast,"[2]; male rats, free form, 30 mg/kg",48 h
same,F,[2]; [11],47%
same,tlast,[2]; [11],72 h
same,F,[2]; [12],81%
same,tlast,[2]; [12],48 h
same,F,[2]; [13],50%
same,tlast,[2]; [13],72 h
same,half-life,"[2]; male, Sprague Dawley, rat, plasma, po, 1 mg/kg, male rats, free form, 1 mg/kg, read-out: t1/2 (converted)",7.65 h
same,half-life,"[2]; male, Sprague Dawley, rat, plasma, po, 30 mg/kg, male rats, free form, 30 mg/kg, read-out: t1/2 (converted)",6.83 h
same,half-life,"[2]; male, Sprague Dawley, rat, plasma, po, 150 mg/kg, male rats, free form, 150 mg/kg, read-out: t1/2 (converted)",8.07 h
same,half-life,"[2]; male, Sprague Dawley, rat, plasma, po, 300 mg/kg, male rats, free form, 300 mg/kg, read-out: t1/2 (converted)",5.86 h
same,half-life,"[2]; male, Sprague Dawley, rat, plasma, po, 600 mg/kg, male rats, free form, 600 mg/kg, read-out: t1/2 (converted)",7.49 h
same,half-life,"[2]; male, Sprague Dawley, rat, plasma, po, administered orally to rats, read-out: half-life",5 to 9 h
same,half-life,"[2]; male, Sprague Dawley, rat, plasma, po, male rats, 1 to 600 mg/kg oral dose range, read-out: terminal half-life",5.9 to 8.1 h
same,bioavailability,"[2]; male, Sprague Dawley, rat, plasma, rats, across the 1 to 600 mg/kg oral dose range",47 to 100%
same,Tmax,"[2]; male, Sprague Dawley, rat, plasma, rats, across the oral dose range, fed conditions",3 to 4.7 h
same,clearance,[2]; rat,very low clearance
same,clearance,[3],very low clearance
same,"AUC0-24hr values, females vs. males",[4]; 500 mg/kg dose group,more than 2 fold
same,Cmax,"[4]; Sprague Dawley, rat, plasma, po, 2000 mg/kg, Male",306000 ng/mL
same,AUC(0-t),"[4]; Sprague Dawley, rat, plasma, po, 2000 mg/kg, Male, read-out: AUC0-24 h",6110 µg·h/mL
same,Tmax,"[4]; Sprague Dawley, rat, plasma, po, 2000 mg/kg, Male, read-out: tmax",24 h
same,Tmax,"[4]; both sexes, rat, plasma, po, 500 to 2000 mg/kg, read-out: time to reach maximum plasma concentrations (tmax)",4 to 24 h
same,half-life,"[4]; both sexes, rat, plasma, po, could not be calculated at 1000 and 2000 mg/kg, read-out: elimination half-life (t1/2)",9.4 to 10.8 h
same,Cmax,"[4]; male, rat, plasma, po, males at 500 mg/kg",135000 ng/mL
same,AUC(0-t),"[4]; male, rat, plasma, po, males at 500 mg/kg, read-out: AUC0-24hr",1390 µg·h/mL
same,Cmax,"[4]; male, rat, plasma, po, males at 2000 mg/kg",306000 ng/mL
same,Cmax,"[4]; rat, plasma, po, 2000 mg/kg, Female",305000 ng/mL
same,AUC(0-t),"[4]; rat, plasma, po, 2000 mg/kg, Female, read-out: AUC0-24 h",6750 µg·h/mL
same,Tmax,"[4]; rat, plasma, po, 2000 mg/kg, Female, read-out: tmax",10 h
same,projected safety margin range from the dog NOAEL,dogs; assuming efficacious dose in dogs 0.91 mg/kg b.i.d. (Ctrough at EC90),110 ×
same,low prostate:body weight and prostate:brain weight ratios vs. vehicle control group,"dogs; male dogs, 14-day study, all dose levels",52-62%
same,Ki,[5],~3 µM
same,IC50,TP receptor,1 to 10 µM
